Measured values reported in article PMC12311259, “Antifibrotic effects of specific targeting of the 5‐hydroxytryptamine 2B receptor (5‐HT2BR) in murine models and ex vivo models of scleroderma skin” (Arthritis & Rheumatology (Hoboken, N.j.), 2025).

Legend:
[1] = target: T1, Histamine H1 (hu) (Homo sapiens, UniProt P35367); assay: Functionality assay, GTPγS Binding, Eurofins Panlabs 313200; format: biochemical
T1 construct: Eurofins Panlabs 313200
From the text: (§1) Effects were considered significant if AM1476's mean value was three or more SDs above the vehicle control mean in the agonist assay or three or more SDs below the positive control agonist (5‐nM α‐methylserotonin) mean in the antagonist assay. AM1476 was screened for selectivity against approximately 200 targets using a Eurofins Panlabs Spectrum screen panel including enzymatic and receptor binding assays.

[2] = target: T2, Uptake, Dopamine (hu) (Homo sapiens, UniProt Q01959); assay: Functionality assay, Uptake, Eurofins Panlabs 316010; format: cell-based
T2 construct: Eurofins Panlabs 316010
From the text: as §1

[3] = target: T3, Serotonin (5-Hydroxytryptamine) 5-HT6 (hu) (Homo sapiens, UniProt P50406); assay: Receptor binding, Eurofins Panlabs 272200
T3 construct: 318000 (adenylyl cyclase)
From the text: as §1

[4] = target: T4, Serotonin (5-Hydroxytryptamine) 5-HT1A (hu) (Homo sapiens, UniProt P08908); assay: Receptor binding, Eurofins Panlabs 271110
T4 construct: Eurofins Panlabs 271110
From the text: as §1

[5] = system: cGvHD-induced skin fibrosis; assay: Sclerodermatous cGvHD mouse model (B10.D2 to BALB/c), skin fibrosis incl. RNASeq and immunofluorescence of skin; format: in vivo
Experimental: AM1476 was dissolved in sterile distilled water for the ex vivo and in vivo experiments. A concentration of 30 μM was applied for the ex vivo experiment. For the in vivo experiments, 1, 3, or 10 mg/kg was administered orally once or twice daily.
The B10.D2→BALB/c (H‐2d) minor histocompatibility antigen–mismatched model was performed as described.[9], [10] Briefly, female BALB/c (H‐2d) mice were purchased from Janvier. Male B10.D2 (H‐2d) mice were initially purchased from Jackson Laboratory. All mice were maintained in specific pathogen‐free conditions with sterile pellet food and water and a normal day–night cycle. For isolation of unfractionated bone marrow cells, tibial and femoral bones were prepared under sterile conditions. Phosphate buffered saline (PBS) was used to flush bone marrow cells from bone marrow cavities. Subsequently, bone marrow cells were filtered through 70‐μm nylon meshes (BD Biosciences), followed by erythrocyte hemolysis. The remaining bone marrow cells were kept on ice until transplantation. Transplantation of bone marrow cells and splenocytes was performed as follows: Recipient mice (BALB/c [H‐2d]) eight weeks of age received total body irradiation with 750 cGy. Six hours after irradiation, all BALB/c (H‐2d) recipients received bone marrow from either BALB/c (H‐2d) in a syngeneic transplantation manner or B10.D2 (H‐2d) in an allogeneic transplantation manner. For transplantation, 5 × 10[6] splenocytes and 2 × 10[6] bone marrow cells from donor mice were resuspended in 0.2 mL of PBS and injected via tail veins.[9], [10] To reflect the clinical situation with treatment initiation upon clinical signs of chronic graft‐versus‐host disease (cGvHD), treatment was started 21 days after bone marrow transplantation (BMT) and thus after the first clinically detectable manifestations of cGvHD in allogeneically transplanted mice. The outcome of treatment was analyzed seven weeks after transplantation. Eight mice per group were analyzed.
Mice were monitored clinically on a daily basis for behavior, activity, texture of the fur, weight, and consistency of the stool.[13] After the mice were killed, a gross macroscopic evaluation of the lungs and the skin was performed.
Recipient mice were clinically monitored on a daily basis from the day of transplantation to the indicated days after transplantation to determine the incidence and severity of cutaneous cGvHD as well as mobility, diarrhea, and weight loss.[10], [14] The following scoring system for cutaneous cGvHD was used: healthy appearance = 0; skin lesions with alopecia <1 cm[2] in area = 1; skin lesions with alopecia 1 to 2 cm[2] in area = 2; and skin lesions with alopecia >2 cm[2] in area = 3.
Skin samples were fixed in 4% formalin for six hours and embedded in paraffin. Five‐micrometer sections were cut and stained with hematoxylin and eosin (H&E). The dermal thickness was quantified on H&E‐stained sections using images captured with a light microscope (Nikon eclipse 80i) at 100‐fold magnification by manually measuring the distance between the epidermal‐dermal junction and the dermal‐subcutaneous fat junction at four sites per mouse.[15], [16] For lung samples, the whole left lung was fixed in 4% formalin for six hours and embedded in paraffin. Five‐micrometer sections were cut and stained with trichrome and sirius red. Histologic readouts were evaluation of the fibrotic area as the percentage of the total lung area in sirius red–stained sections (two sections per mouse) and quantification of pulmonary changes using the Ashcroft score (four sections per mouse).[17], [18]
The amount of collagen protein in skin and lung samples was determined by hydroxyproline assay.[19], [20] After digestion in 6 M HCl for three hours at 120°C, the pH of the samples was adjusted to a pH range of 6–7 with 6 M NaOH. Afterward, 0.06 M chloramine T was added to each sample and incubated for 20 minutes at room temperature.

[6] = cGvHD mice, 28 days repeated oral once daily administration
Experimental: After repeated oral administration for 28 days, whole blood was collected from each treatment group 15 minutes, 30 minutes, and 1, 2, 4, 6, 8, and 24 hours after a final morning dose (two animals were used for each time point), and plasma was separated from blood within 30 minutes.

[7] = target: T5, Adrenergic β1 (hu) (Homo sapiens, UniProt P08588); assay: Functionality assay, Adenylyl Cyclase, Eurofins Panlabs 302230; format: cell-based
T5 construct: Eurofins Panlabs 302230
From the text: as §1

[8] = target: T6, Adrenergic α1D (hu) (Homo sapiens, UniProt P25100); assay: Functionality assay, IP1, Eurofins Panlabs 302080; format: cell-based
T6 construct: Eurofins Panlabs 302080

[9] = treatment from day 21 after BMT, vs vehicle-treated mice seven weeks after BMT

T3 sequence (P50406 whole entry): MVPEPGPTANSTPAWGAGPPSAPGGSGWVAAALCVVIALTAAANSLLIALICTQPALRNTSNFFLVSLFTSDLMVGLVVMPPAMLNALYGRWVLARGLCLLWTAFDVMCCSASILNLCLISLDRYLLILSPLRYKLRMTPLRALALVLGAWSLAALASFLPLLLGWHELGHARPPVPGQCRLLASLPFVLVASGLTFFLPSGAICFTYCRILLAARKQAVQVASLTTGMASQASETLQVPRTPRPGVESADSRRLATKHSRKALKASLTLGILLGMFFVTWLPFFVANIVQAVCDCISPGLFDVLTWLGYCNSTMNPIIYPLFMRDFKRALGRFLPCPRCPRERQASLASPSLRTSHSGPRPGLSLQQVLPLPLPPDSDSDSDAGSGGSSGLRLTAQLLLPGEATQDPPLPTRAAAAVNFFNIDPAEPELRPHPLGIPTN
T1 sequence (P35367 whole entry): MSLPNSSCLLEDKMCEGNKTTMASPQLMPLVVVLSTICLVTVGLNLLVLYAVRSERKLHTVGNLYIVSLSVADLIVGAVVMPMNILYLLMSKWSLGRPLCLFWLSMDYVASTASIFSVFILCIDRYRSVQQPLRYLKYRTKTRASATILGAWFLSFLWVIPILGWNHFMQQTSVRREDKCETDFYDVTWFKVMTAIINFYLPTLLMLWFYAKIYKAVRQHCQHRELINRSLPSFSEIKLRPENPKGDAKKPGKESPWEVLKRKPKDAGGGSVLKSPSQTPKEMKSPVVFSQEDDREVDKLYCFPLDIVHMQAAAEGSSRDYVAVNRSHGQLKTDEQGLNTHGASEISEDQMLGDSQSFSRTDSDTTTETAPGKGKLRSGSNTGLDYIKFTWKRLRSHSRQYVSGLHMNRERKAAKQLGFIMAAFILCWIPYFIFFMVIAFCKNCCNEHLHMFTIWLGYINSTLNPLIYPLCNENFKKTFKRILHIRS
T6 sequence (P25100 whole entry): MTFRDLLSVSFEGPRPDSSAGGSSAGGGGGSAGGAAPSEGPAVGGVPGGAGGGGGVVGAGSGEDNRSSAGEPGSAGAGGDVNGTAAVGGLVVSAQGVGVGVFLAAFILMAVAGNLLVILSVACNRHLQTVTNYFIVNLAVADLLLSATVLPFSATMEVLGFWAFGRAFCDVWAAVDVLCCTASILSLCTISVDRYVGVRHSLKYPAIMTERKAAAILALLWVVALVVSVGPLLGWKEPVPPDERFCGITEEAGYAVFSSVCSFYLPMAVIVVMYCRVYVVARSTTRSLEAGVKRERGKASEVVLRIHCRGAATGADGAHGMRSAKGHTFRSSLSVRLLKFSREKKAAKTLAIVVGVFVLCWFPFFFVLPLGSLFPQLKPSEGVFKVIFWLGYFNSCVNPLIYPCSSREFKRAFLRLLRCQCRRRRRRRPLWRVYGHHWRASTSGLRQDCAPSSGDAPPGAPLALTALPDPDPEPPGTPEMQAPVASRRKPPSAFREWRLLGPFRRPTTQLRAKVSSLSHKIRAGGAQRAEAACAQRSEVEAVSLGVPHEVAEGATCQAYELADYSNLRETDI
T5 sequence (P08588 whole entry): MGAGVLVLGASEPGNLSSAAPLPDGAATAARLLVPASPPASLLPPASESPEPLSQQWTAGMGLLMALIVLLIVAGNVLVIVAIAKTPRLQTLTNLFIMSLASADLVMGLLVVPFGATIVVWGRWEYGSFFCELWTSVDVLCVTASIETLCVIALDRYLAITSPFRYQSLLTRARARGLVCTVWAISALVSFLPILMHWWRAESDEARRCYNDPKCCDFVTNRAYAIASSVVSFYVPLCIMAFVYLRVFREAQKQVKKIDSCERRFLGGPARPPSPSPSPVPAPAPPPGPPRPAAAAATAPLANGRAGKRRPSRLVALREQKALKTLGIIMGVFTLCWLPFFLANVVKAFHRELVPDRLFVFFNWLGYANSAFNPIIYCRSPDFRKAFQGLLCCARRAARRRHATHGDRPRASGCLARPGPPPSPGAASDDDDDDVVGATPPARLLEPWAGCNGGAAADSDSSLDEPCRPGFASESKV
T2 sequence (Q01959 whole entry): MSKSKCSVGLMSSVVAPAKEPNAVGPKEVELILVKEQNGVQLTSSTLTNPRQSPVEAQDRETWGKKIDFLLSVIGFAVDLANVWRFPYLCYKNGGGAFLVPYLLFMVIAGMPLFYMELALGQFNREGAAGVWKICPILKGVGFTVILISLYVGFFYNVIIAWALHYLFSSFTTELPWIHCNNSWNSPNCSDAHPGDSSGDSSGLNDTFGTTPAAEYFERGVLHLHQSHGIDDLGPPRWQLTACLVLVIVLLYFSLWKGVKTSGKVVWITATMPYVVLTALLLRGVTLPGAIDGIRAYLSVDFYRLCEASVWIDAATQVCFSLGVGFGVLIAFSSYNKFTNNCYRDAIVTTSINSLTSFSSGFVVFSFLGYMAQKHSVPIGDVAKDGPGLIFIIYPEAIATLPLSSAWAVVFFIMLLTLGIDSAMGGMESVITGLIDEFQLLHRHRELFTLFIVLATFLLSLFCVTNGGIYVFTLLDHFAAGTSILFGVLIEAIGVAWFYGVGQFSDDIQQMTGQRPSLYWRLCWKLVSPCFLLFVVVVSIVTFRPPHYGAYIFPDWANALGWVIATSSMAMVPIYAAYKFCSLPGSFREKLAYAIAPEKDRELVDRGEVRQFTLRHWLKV
T4 sequence (P08908 whole entry): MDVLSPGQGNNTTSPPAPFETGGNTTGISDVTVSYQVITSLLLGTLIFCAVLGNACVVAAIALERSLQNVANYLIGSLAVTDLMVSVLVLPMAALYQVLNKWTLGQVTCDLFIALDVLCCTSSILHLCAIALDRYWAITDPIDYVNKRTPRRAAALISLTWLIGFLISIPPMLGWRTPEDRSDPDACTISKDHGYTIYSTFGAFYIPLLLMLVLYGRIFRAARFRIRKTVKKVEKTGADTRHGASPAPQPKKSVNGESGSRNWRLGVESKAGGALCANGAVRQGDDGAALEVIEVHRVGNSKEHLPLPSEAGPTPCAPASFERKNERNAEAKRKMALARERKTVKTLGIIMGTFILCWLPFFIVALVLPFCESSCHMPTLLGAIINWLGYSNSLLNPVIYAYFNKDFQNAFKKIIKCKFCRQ

With `C[C@@H]1CN(C(=N)N)N=C1c1ccc(F)cc1O` [AM1476] the IC50 [1] was 28 µM, the “agonistic activity, Histamine H1” value ([1]; at 30 µM) was “No significant agonistic activity at 30 µM” and the IC50 [2] was greater than 30 µM. The “% Inhibition at 1 µM, 5-HT6 (hu)” value ([3]; 1 µM (value in brackets)) was 51%, the “% Inhibition at 10 µM, 5-HT6 (hu)” value ([3]; 10 µM) was 90% and the “% Inhibition at 10 µM, 5-HT1A (hu)” value [4] was 16%. The “antifibrotic effects, comparison of doses” value ([5]; 10 mg/kg bid and 10 mg/kg qd (comparable to each other) vs 1 mg/kg bid) was “more pronounced than with 1 mg/kg bid”, the “hydroxyproline content, skin, vs mice killed after three weeks” value ([5]; 10 mg/kg qd) was “significant reduction” and the “number of CD45+ leukocytes in skin” value ([5]; all doses) was “none of the concentrations of AM1476 reduced”. The “myofibroblast counts vs mice killed three weeks after BMT” value ([5]; all three doses) was “significantly lower”, the “tolerability (clinical examination, gross necropsy, histology)” value ([5]; all three doses (1 mg/kg bid, 10 mg/kg qd, 10 mg/kg bid), oral) was “well tolerated without obvious signs of toxicity” and the “AAM (alternatively activated M2 macrophage) counts in the skin” value ([5]; all three doses, statistically significant for 10 mg/kg qd and 10 mg/kg bid) was “reduction of AAM accumulation”. The “accumulation of hydroxyproline, skin” value [5, 9] was “reduced”, the dermal thickening [5, 9] was “reduced” and the “myofibroblast differentiation, skin” value [5, 9] was “reduced”. The “level of systemic exposure (free plasma concentration) vs IC50 of mouse 5-HT2BR antagonistic activity” value [6] was “exceeded the IC50”, the IC50 [7] was 32.5 µM and the “agonistic activity, Adrenergic β1” value ([7]; at 300 µM) was “No significant agonistic activity at 300 µM”. For the same compound, the IC50 [8] was 7.76 µM and the “agonistic activity, Adrenergic α1D” value ([8]; at 30 µM) was “No significant agonistic activity at 30 µM”.
